Entries after “also recorded” stand apart in the source; their conditions may differ. Where two headings read alike, the source gives them in different places. Marks after values point to notes of the source that are not given here.
Legend:
[1] = target: T1, KV7.2/3 channel (Homo sapiens, UniProt O43525+O43526); assay: KV7.2/3 channel opening assay (thallium-sensitive fluorescence); format: cell-based; details: for potency relative to flupirtine: KV7.2/3 opening, EC50 compared with flupirtine
Method: To evaluate the biological activity, the synthesized analogues were tested on HEK293 cells overexpressing the KV7.2/3 channel. The measurement was carried out in a fluorescence-based assay in which a thallium-sensitive dye generated the fluorescence signal. Due to its similarity to potassium, thallium can also pass through KV7 channels. The intensity of the fluorescence signal correlates with the amount of intracellular thallium and thus with the ability of the compounds to open KV7 channels. To determine the potency, the fluorescence intensity was measured as a function of the compound concentration. The efficacy was determined relative to the maximum fluorescence signal induced by flupirtine. For a summary of the activity data, see Table 2.
The cell culture of the KV7.2/3 transfected HEK293 cells (HEK293 KCNQ2/3 cells from SB Drug Discovery, Glasgow, UK) used for the assay and the processing of the obtained data were performed as described in earlier work.[27],[29] Briefly, 60,000 cells/well were seeded into 96-well microtiter plates for fluorescence-based assays (4titude Vision Plate Black 96-Well microtiter plates from ThermoScientic) and incubated for 24 h. After incubation, the medium was changed to 200 μL/well loading buffer containing 5 mmol/L probenecid and incubated for 1 h at room temperature. Subsequently, the test compounds dissolved in DMSO were added to the wells to the desired concentrations and further incubated for 30 min. As a control, the loading buffer with a DMSO concentration corresponding to the substance samples (1% (V/V)) was used. Fluorescence measurements were performed on the Infinite F200 Pro plate reader (Tecan) set at […]/emission wavelengths of 485 and 535 nm, respectively. After measuring the background fluorescence (baseline) for 20 s, a stimulus buffer (25 mmol/L K^+, 15 mmol/L Tl^+) was added just before the fluorescence of each well was measured.
The calculations to obtain dose–response curves were performed in the same manner as in previous investigations.[27],[29] Briefly, the fluorescence intensity was normalized with the baseline signal (F/F0) at each time of signal acquisition. To obtain the corrected negative control, a value of 1 was subtracted from the normalized value of the negative control. Subsequently, the value of the corrected negative control was subtracted from the maximum (corr. F/F0) value of a compound in a defined concentration (corr. ΔF/F0) and then plotted against the logarithmic concentration. The EC50 value was calculated as relative values with GraphPad Prism 6 (La Jolla, CA, USA), that is, the inflection points of the sigmoidal curves. The Emax value, the maximum response, indicates the intrinsic activity of a compound. This value was determined relative to flupirtine (1), where the maximum corr. ΔF/F0 value of flupirtine (1) was defined as 100%. The EC50 and Emax value of a compound is the mean of at least three independent experiments ± standard deviation (SD).

[2] = system: TAMH cells; assay: MTT cell viability assay, TAMH cells; details: TAMH cells, MTT assay, 24 h exposure; for LD25: 25% reduction of viability; for LD50: 50% reduction of viability
Excerpt: (§1) In addition to the activity, basic toxicological properties of the newly synthesized compounds were also investigated by using the 3-(4,5-dimethylthiazol-2-yl)-2,5-diphenyltetrazolium bromide (MTT) cell viability assay on mouse TAMH and human HEP-G2 hepatic cell lines (see Table 2). Both cell lines are established for the evaluation of hepatotoxicity.[42],[43]
(§2) The culturing of the mouse liver TAMH and human liver cancer HEP-G2 cell lines and the MTT assay used to evaluate cell viability were carried out as previously described elsewhere in detail.[27],[29] […] The medium in the wells was then replaced with the medium containing the compounds. Control wells contained an equivalent number of cells and 1% (v/v) DMSO. Wells without cells were used to determine the background optical density (OD) and were treated as the control wells. After 24 or 48 h of incubation with the compound, the respective medium was replaced with a fresh medium supplemented with 10% (v/v) of a 2.5 mg/mL solution of MTT. The plates were incubated for 4 h. Then, the culture medium was carefully aspirated off and 50 μL of DMSO was added to each well to dissolve the formazan crystals. The ODs of each well were measured at λ = 570 nm with a SpectraMax 190 microplate reader.
(§3) The calculated T/Ccorr. values were plotted against the log(concentration). The LD50 and LD25 values were determined by using GraphPad Prism 6. […] The values are given as the mean with SD of at least three independent experiments.

[3] = system: HEP-G2 cells; assay: MTT cell viability assay, HEP-G2 cells; details: HEP-G2 cells, MTT assay, 24 h exposure; for LD25: 25% reduction of viability; for LD50: 50% reduction of viability
Excerpt: as §1, §2, §3

[4] = log D7.4 estimation by HPLC-based method; format: physicochemical
Method: The log D7.4 values were estimated using a common HPLC-based method in accordance with guideline OPPTS 830.7570 of the United States Environmental Protection Agency (EPA). The HPLC measurements were performed with a Phenomenex Luna 5 μm Phenyl-Hexyl 100 Å column (150 × 4.6 mm). […]. Uracil was used to measure the unretained peak time. To obtain a calibration function, the logarithm of the capacity factors for the reference substances was then plotted against the corresponding log P values taken from the mentioned guideline, which are equivalent to the log D7.4 values for non-ionizable compounds like the reference substances used for calibration. With this calibration function, it was possible to estimate the log D7.4 value from the corresponding retention time for each compound to be tested. For the measurement, 2 mg of the reference substances was each dissolved in 1 mL of methanol. A reference mixture was then obtained by combining 50 μL of each reference solution. The reference mixture was measured before and after the substances to be tested. The mean value from both measurements was used for the calibration line. The substances to be tested were injected as a solution in methanol (2 mg/mL), and the retention time was determined as the mean value from two measurements.

[5] = Maximum concentration without precipitation in MTT assay buffer; format: physicochemical
Excerpt: A limitation in the in vitro toxicity testing was the occasional poor water solubility of the analogues.

[6] = parameters: method as in guideline OPPTS 830.7570 (EPA); details: reference substances for calibration; log P values; ref guideline OPPTS 830.7570 (EPA); cited from earlier work
[7] = target: T1, KV7.2/3 channel; details: cited from earlier work
[8] = system: TAMH cells; details: MTT assay, 24 h exposure; cited from earlier work
[9] = system: HEP-G2 cells; details: MTT assay, 24 h exposure; cited from earlier work
[10] = HPLC, Phenomenex Luna 5 μm Phenyl-Hexyl column, pH 7.4, HPLC, mean of two calibrations, read-out: logD7.4 (mean)
[11] = HPLC, Phenomenex Luna 5 μm Phenyl-Hexyl column, pH 7.4, estimated by HPLC-based method, pH 7.4, read-out: log D7.4

T1 sequence (O43526 whole entry): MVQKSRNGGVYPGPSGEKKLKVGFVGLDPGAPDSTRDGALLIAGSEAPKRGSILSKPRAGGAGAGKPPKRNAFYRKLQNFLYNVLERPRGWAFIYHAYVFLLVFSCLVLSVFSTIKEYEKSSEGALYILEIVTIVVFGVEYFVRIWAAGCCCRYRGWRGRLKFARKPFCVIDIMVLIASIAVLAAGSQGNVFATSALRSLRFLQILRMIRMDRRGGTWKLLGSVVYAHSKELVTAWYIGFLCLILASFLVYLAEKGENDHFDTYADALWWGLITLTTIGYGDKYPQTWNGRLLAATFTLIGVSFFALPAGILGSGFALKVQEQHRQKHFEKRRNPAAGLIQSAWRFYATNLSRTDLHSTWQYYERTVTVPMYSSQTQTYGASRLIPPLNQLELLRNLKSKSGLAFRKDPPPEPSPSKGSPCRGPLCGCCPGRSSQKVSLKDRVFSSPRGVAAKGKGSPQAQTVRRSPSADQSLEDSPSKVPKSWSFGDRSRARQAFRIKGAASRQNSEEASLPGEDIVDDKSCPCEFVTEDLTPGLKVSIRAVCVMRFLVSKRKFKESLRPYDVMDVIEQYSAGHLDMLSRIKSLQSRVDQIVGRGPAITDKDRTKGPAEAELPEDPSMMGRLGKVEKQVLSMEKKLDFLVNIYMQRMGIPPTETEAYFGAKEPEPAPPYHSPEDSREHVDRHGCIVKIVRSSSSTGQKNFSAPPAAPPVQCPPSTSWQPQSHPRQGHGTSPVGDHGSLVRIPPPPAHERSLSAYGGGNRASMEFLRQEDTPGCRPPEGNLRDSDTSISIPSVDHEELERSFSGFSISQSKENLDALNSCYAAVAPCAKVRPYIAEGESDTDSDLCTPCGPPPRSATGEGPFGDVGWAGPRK
T1 sequence (O43525 whole entry): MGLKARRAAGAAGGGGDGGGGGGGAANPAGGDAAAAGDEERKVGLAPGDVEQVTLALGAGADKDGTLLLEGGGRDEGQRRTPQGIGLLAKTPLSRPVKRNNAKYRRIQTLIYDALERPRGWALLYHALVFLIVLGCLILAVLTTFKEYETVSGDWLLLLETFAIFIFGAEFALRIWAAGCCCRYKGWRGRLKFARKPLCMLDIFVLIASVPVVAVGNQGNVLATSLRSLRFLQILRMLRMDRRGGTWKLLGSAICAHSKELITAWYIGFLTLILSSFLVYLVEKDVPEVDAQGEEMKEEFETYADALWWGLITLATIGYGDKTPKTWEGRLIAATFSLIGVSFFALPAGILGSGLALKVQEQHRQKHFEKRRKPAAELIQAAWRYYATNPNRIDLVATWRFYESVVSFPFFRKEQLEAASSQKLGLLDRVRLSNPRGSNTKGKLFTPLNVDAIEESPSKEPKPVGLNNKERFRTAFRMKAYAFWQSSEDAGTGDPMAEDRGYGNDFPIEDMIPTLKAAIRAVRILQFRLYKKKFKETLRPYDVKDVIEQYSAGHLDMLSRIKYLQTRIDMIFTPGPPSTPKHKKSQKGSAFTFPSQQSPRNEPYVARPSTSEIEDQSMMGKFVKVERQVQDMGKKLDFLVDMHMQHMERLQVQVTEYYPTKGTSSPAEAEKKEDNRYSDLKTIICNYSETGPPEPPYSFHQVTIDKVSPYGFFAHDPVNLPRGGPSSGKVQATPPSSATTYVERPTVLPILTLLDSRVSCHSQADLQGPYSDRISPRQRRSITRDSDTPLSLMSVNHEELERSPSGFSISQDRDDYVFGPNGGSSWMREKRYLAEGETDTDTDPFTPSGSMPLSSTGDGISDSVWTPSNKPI

## COc1nc(NCc2ccc(F)cc2)cc(C)c1C(=O)NCc1ccc(F)cc1 [36b, N-(4-Fluorobenzyl)-6-[(4-fluorobenzyl)amino]-2-methoxy-4-methylnicotinamide]
[1]; HEK293 cells overexpressing KV7.2/3, concentration for half-maximal channel opening, mean ± SD, ≥3 determinations
  EC50: 310 nM
[1]; HEK293 cells overexpressing KV7.2/3, relative to maximum signal of flupirtine (=100%)
  efficacy: 105 ± 12%
[1]
  potency relative to flupirtine: about six times more potent than flupirtine; also recorded: six times as potent as flupirtine
[1]; listed as N-(4-fluorobenzyl)-6-[(4-fluorobenzyl)amino]-2-methoxy-4-methylnicotinamide
  potency relative to flupirtine: six times as active as flupirtine
[2]
  LD25: >63 µM
  LD50: >63 µM
[3]
  LD25: >16 µM
  LD50: >16 µM
[4]; HPLC, Phenomenex Luna 5 μm Phenyl-Hexyl column, pH 7.4, HPLC, calibration A1, read-out: logD7.4
  chromatographic logD: 4.13
[4]; HPLC, Phenomenex Luna 5 μm Phenyl-Hexyl column, pH 7.4, HPLC, calibration B1, read-out: logD7.4
  chromatographic logD: 4.09
[4]; [10]
  chromatographic logD: 4.1
[4]; [11]
  chromatographic logD: 4.1
[5]
  maximum concentration achieved without precipitating: 63 µM

## c1ccc(N(c2ccccc2)c2ccccc2)cc1 [Triphenylamine]
[6]
  logD (Lit.): 5.7

## CCOC(=O)Nc1ccc(NCc2ccc(F)cc2)cc1N [compound 2, retigabine]
[4]; pH 7.4, HPLC, calibration C, read-out: logD7.4
  chromatographic logD: 2.05
[4]; pH 7.4, HPLC, calibration D, read-out: logD7.4
  chromatographic logD: 2.06
[4]; pH 7.4, HPLC, mean of two calibrations, read-out: logD7.4 (mean)
  chromatographic logD: 2.1
[4]; pH 7.4, estimated by HPLC-based method, pH 7.4, read-out: log D7.4
  chromatographic logD: 2.1
[7]; HEK293 cells overexpressing KV7.2/3, mean ± SD
  EC50: 147 ± 12 nM
[7]; HEK293 cells overexpressing KV7.2/3, relative to flupirtine
  efficacy: 134 ± 16 ^f %
[8]
  LD50: >400 ^f μM
[9]
  LD25: 269 ± 166 ^f μM
  LD50: >400 ^f μM

## Cc1cc(NCc2ccc(F)cc2)[nH]c(=O)c1C(=O)NCc1ccc(F)cc1 [compound 37, N-(4-Fluorobenzyl)-6-[(4-fluorobenzyl)amino]-4-methyl-2-oxo-1,2-dihydropyridine-3-carboxamide]
other
  melting point: 196 °C

## O=C(Cc1cc(F)cc(F)c1)Nc1ccc(N2CCOCC2)nc1N1CCOCC1 [compound 49]
[7]; KV7.2/3, lead structure from previous work, read-out: EC50
  EC50: 11 nM

## Cc1cc(NCc2ccc(F)cc2)nc(N2CCOCC2)c1CNC(=O)OCC(C)C [compound 66, Isobutyl ({6-[(4-Fluorobenzyl)amino]-4-methyl-2-morpholinopyridin-3-yl}methyl)carbamate]
[1]; HEK293 cells overexpressing KV7.2/3, footnote e
  EC50: > 10000 nM
[1]; inactive = no channel opening activity detected up to a concentration of 10 μM
  KV7.2/3 channel opening activity (in words): inactive
[2]
  LD25: 52 ± 61 µM
  LD50: >125 µM
[3]
  LD25: 24 ± 27 µM
  LD50: >125 µM
[4]; HPLC, Phenomenex Luna 5 μm Phenyl-Hexyl column, pH 7.4, HPLC, calibration A2, read-out: logD7.4
  chromatographic logD: 4.75
[4]; HPLC, Phenomenex Luna 5 μm Phenyl-Hexyl column, pH 7.4, HPLC, calibration B2, read-out: logD7.4
  chromatographic logD: 4.75
[4]; [10]
  chromatographic logD: 4.8
[4]; [11]
  chromatographic logD: 4.8
